In US8791102B2, “Acetanilide sphingosine-1-phosphate receptor antagonists” (Exelixis, Inc., priority 2008, dated 2014) one finds IC50 data, which are given here for 32 compounds.

Some results are limits rather than exact numbers.

This assay has as its target T1, human S1P1 receptors (Homo sapiens, UniProt P21453).
T1 construct: host or cells: HEK293
The assay can be described thus: S1P1R antagonist assay (fluorescent membrane potential dye, cAMP readout). It is filed as cell-based. As to conditions: HEK293 cells expressing human S1P1 receptors and CNG channel; 500 nM NECA; S1P1R agonist 10 nM; 90 minutes; read-out: EC50 or IC50 value.

T1 sequence (P21453 whole entry): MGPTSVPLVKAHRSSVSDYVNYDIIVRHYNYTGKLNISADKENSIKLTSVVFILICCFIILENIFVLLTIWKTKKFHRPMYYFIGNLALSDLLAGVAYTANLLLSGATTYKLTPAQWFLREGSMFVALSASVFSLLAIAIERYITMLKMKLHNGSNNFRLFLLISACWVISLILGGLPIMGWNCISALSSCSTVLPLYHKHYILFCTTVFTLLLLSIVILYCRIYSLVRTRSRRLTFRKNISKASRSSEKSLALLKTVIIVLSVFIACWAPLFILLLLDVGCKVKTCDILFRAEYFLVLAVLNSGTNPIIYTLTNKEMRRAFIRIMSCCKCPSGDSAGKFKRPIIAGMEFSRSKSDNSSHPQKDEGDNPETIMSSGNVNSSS

In the case of `O=C(NC(COCc1ccccc1)C(=O)Nc1ccc(Oc2ccccc2)cc1)c1c[nH]c2ccccc12` (centres unmarked) [Compound 341, N-(2-oxo-1-{[(phenylmethyl)oxy]methyl}-2-{[4-(phenyloxy)phenyl]amino}ethyl)-1H-indole-3-carboxamide], the IC50 was more than 1 µM. For the compound `CC(C(=O)N[C@@H](COCc1ccccc1)C(=O)Nc1ccc(Oc2ccc(F)cc2)cc1)c1c[nH]cn1` (stereo partly drawn) [Compound 167, (2S)-2-(2-(1H-imidazol-4-yl)propanamido)-3-(benzyloxy)-N-(4-(4-fluorophenoxy)phenyl)propanamide], the IC50 is not above 0.3 µM. As for `O=C(NC(COCc1ccccc1)C(=O)Nc1ccc(Oc2ccccc2)cc1)c1cc(F)cc(C(F)(F)F)c1` (centres unmarked) [Compound 398, 3-fluoro-N-(2-oxo-1-{[(phenylmethyl)oxy]methyl}-2-{[4-(phenyloxy)phenyl]amino}ethyl)-5-(trifluoromethyl)benzamide], the IC50 is more than 1 µM. For `O=C(Nc1ccc(Oc2ccc(F)cc2)cc1)[C@@H]1C[C@@H](Cc2ccc(F)cc2)C(=O)N1C(=O)Cn1cncn1` [Compound 71, (2S,4R)-1-(2-(1H-1,2,4-triazol-1-yl)acetyl)-4-(4-fluorobenzyl)-N-(4-(4-fluorophenoxy)phenyl)-5-oxopyrrolidine-2-carboxamide] the value was not above 0.3 µM; for `CS(=O)(=O)c1ccc(C(=O)NC(COCc2ccccc2)C(=O)Nc2ccc(Oc3ccccc3)cc2)c(Cl)c1` (centres unmarked) [Compound 334, 2-chloro-4-(methylsulfonyl)-N-(2-oxo-1-{[(phenylmethyl)oxy]methyl}-2-{[4-(phenyloxy)phenyl]amino}ethyl)benzamide], more than 1 µM. Take `O=C(Cc1cccc(Cl)c1)NC(COCc1ccccc1)C(=O)Nc1ccc(Oc2ccccc2)cc1` (centres unmarked) [Compound 377, N-(2-oxo-1-{[(phenylmethyl)oxy]methyl}-2-{[4-(phenyloxy)phenyl]amino}ethyl)-2-(3-chlorophenyl)acetamide]: the IC50 fell in the range of 0.3 to 1 µM. For `O=C(Cc1cccc(Cl)c1F)NC(COCc1ccccc1)C(=O)Nc1ccc(Oc2ccccc2)cc1` (centres unmarked) [Compound 191, 3-(benzyloxy)-2-(2-(3-chloro-2-fluorophenyl)acetamido)-N-(4-phenoxyphenyl)propanamide] the value was 0.3 to 1 µM.

As for `CC(=O)O[C@@H](C)C(=O)NC(COCc1ccccc1)C(=O)Nc1ccc(Oc2ccccc2)cc1` (stereo partly drawn) [Compound 25, (2S)-1-(3-(benzyloxy)-1-oxo-1-(4-phenoxyphenylamino)propan-2-ylamino)-1-oxopropan-2-yl acetate], the IC50 was more than 1 µM. For `O=C(NC(COCc1ccccc1)C(=O)Nc1ccc(Oc2ccccc2)cc1)c1cnnc2ccccc12` (centres unmarked) [Compound 356, N-(2-oxo-1-{[(phenylmethyl)oxy]methyl}-2-{[4-(phenyloxy)phenyl]amino}ethyl)cinnoline-4-carboxamide] the value was 0.3 to 1 µM; for `Cc1cn(CC(=O)N[C@@H](COCc2ccccc2)C(=O)Nc2ccc(Oc3ccc(F)cc3)cc2)nn1` [Compound 153, (S)-3-(benzyloxy)-N-(4-(4-fluorophenoxy)phenyl)-2-(2-(4-methyl-1H-1,2,3-triazol-1-yl)acetamido)propanamide], not above 0.3 µM; for `O=C(Nc1ccc(Oc2ccc(F)cc2)cc1)[C@@H]1C[C@@H](Cc2cccc(Cl)c2)CN1C(=O)Cn1cncn1` [Compound 61, (2S,4R)-1-(2-(1H-1,2,4-triazol-1-yl)acetyl)-4-(3-chlorobenzyl)-N-(4-(4-fluorophenoxy)phenyl)pyrrolidine-2-carboxamide], not above 0.3 µM. For the compound `O=C(NC(COCc1ccccc1)C(=O)Nc1ccc(Oc2ccccc2)cc1)C(=O)c1ccccc1` (centres unmarked) [Compound 324, N-(2-oxo-1-{[(phenylmethyl)oxy]methyl}-2-{[4-(phenyloxy)phenyl]amino}ethyl)-2-oxo-2-phenylacetamide], the IC50 is more than 1 µM. `COc1cc(OC)cc(C(=O)NC(COCc2ccccc2)C(=O)Nc2ccc(Oc3ccccc3)cc2)c1` (centres unmarked) [Compound 316, 3,5-bis(methyloxy)-N-(2-oxo-1-{[(phenylmethyl)oxy]methyl}-2-{[4-(phenyloxy)phenyl]amino}ethyl)benzamide]: the 50% inhibitory concentration (IC50) is more than 1 µM. For `O=C(NC(COCc1ccccc1)C(=O)Nc1ccc(Oc2ccccc2)cc1)C1Cc2ccccc2C1` (centres unmarked) [Compound 188, N-(3-(benzyloxy)-1-oxo-1-(4-phenoxyphenylamino)propan-2-yl)-2,3-dihydro-1H-indene-2-carboxamide] the value was 0.3 to 1 µM; for `O=C(Nc1ccc(Oc2ccc(F)cc2)cc1)[C@@H]1C[C@@H](Cc2ccc(F)cc2)CN1C(=O)Cn1ccnn1` [Compound 75, (2S,4R)-1-(2-(1H-1,2,3-triazol-1-yl)acetyl)-4-(4-fluorobenzyl)-N-(4-(4-fluorophenoxy)phenyl)pyrrolidine-2-carboxamide], not above 0.3 µM.

As for `CN(C)c1ccc(C(=O)NC(COCc2ccccc2)C(=O)Nc2ccc(Oc3ccccc3)cc2)cc1` (centres unmarked) [Compound 294, 4-(dimethylamino)-N-(2-oxo-1-{[(phenylmethyl)oxy]methyl}-2-{[4-(phenyloxy)phenyl]amino}ethyl)benzamide], the IC50 is more than 1 µM.

`O=C(Cn1cncn1)N1C[C@H](Cc2ccccc2)C[C@H]1c1nc2cc(Oc3ccc(F)cc3)ccc2[nH]1` [Compound 12, 1-((2S,4R)-4-benzyl-2-(5-(4-fluorophenoxy)-1H-benzo[d]imidazol-2-yl)pyrrolidin-1-yl)-2-(1H-1,2,4-triazol-1-yl)ethanone]: the IC50 is 0.3 to 1 µM. On to `O=C(NC(COCc1ccccc1)C(=O)Nc1ccc(Oc2ccccc2)cc1)C1CCOC1` (centres unmarked) [Compound 336, N-(2-oxo-1-{[(phenylmethyl)oxy]methyl}-2-{[4-(phenyloxy)phenyl]amino}ethyl)tetrahydrofuran-3-carboxamide], for which the IC50 is not above 0.3 µM. With `Cc1ccccc1C[C@@H]1C[C@@H](C(=O)Nc2ccc(Oc3ccc(F)cc3)cc2)N(C(=O)Cn2cncn2)C1` [Compound 55, (2S,4R)-1-(2-(1H-1,2,4-triazol-1-yl)acetyl)-N-(4-(4-fluorophenoxy)phenyl)-4-(2-methylbenzyl)pyrrolidine-2-carboxamide], the IC50 was not above 0.3 µM. In the case of `O=C(Cn1cncn1)N[C@@H](COCc1ccccc1)C(=O)Nc1ccc(Oc2ccc(F)cc2)cc1` [Compound 149, (S)-2-(2-(1H-1,2,4-triazol-1-yl)acetamido)-3-benzyloxy-N-(4-(4-fluorophenoxy)phenyl)propanamide], the IC50 is not above 0.3 µM. `O=C(CCc1c[nH]c2ccccc12)NC(COCc1ccccc1)C(=O)Nc1ccc(Oc2ccccc2)cc1` (centres unmarked) [Compound 383, N-(2-oxo-1-{[(phenylmethyl)oxy]methyl}-2-{[4-(phenyloxy)phenyl]amino}ethyl)-3-(1H-indol-3-yl)propanamide]: the IC50 is more than 1 µM. For `O=C(Nc1ccc(Oc2ccccc2)cc1)C(COCc1ccccc1)NC(=O)C1(c2c(F)cccc2Cl)CCCC1` (centres unmarked) [Compound 329, 1-(2-chloro-6-fluorophenyl)-N-(2-oxo-1-{[(phenylmethyl)oxy]methyl}-2-{[4-(phenyloxy)phenyl]amino}ethyl)cyclopentanecarboxamide], the IC50 was more than 1 µM. Take `Cn1cc(CC(=O)NC(COCc2ccccc2)C(=O)Nc2ccc(Oc3ccccc3)cc2)c2ccccc21` (centres unmarked) [Compound 364, N-(2-oxo-1-{[(phenylmethyl)oxy]methyl}-2-{[4-(phenyloxy)phenyl]amino}ethyl)-2-(1-methyl-1H-indol-3-yl)acetamide]: the IC50 was more than 1 µM. Regarding `O=C(CN1Cc2ccccc2C1)N[C@@H](COCc1ccccc1)C(=O)Nc1ccc(Oc2ccc(F)cc2)cc1` [Compound 240, (S)-3-(benzyloxy)-N-(4-(4-fluorophenoxy)phenyl)-2-(2-(isoindolin-2-yl)acetamido)propanamide], the IC50 was 0.3 to 1 µM. For `O=C(Cc1c[nH]cn1)N[C@@H](COCc1ccccc1)C(=O)Nc1ccc(Oc2nccs2)cc1` [Compound 206, (S)-2-(2-(1H-imidazol-4-yl)acetamido)-3-(benzyloxy)-N-(4-(thiazol-2-yloxy)phenyl)propanamide], the 50% inhibitory concentration (IC50) lay within 0.3 to 1 µM.

Turning to `Cc1nc(C)n(CC(=O)N[C@@H](COCc2ccccc2)C(=O)Nc2ccc(Oc3ccc(F)cc3)cc2)n1` [Compound 256, (S)-3-(benzyloxy)-2-(2-(3,5-dimethyl-1H-1,2,4-triazol-1-yl)acetamido)-N-(4-(4-fluorophenoxy)phenyl)propanamide], the half-maximal inhibitory concentration (IC50) was not above 0.3 µM. As for `O=C(Cc1cnc[nH]1)N[C@@H](COCc1ccccc1)C(=O)Nc1ccc(OC2CCCCC2)cc1` [Compound 208, (S)-2-(2-(1H-imidazol-5-yl)acetamido)-3-(benzyloxy)-N-(4-(cyclohexyloxy)phenyl)propanamide], the IC50 was in the range of 0.3 to 1 µM. In the case of `COCCN1CCN(CC(=O)N[C@@H](COCc2ccccc2)C(=O)Nc2ccc(Oc3ccc(F)cc3)cc2)CC1` [Compound 241, (S)-3-(benzyloxy)-N-(4-(4-fluorophenoxy)phenyl)-2-(2-(4-(2-methoxyethyl)piperazin-1-yl)acetamido)propanamide], the IC50 was in the range of 0.3 to 1 µM.

Take `O=C(CCCc1cccs1)NC(COCc1ccccc1)C(=O)Nc1ccc(Oc2ccccc2)cc1` (centres unmarked) [Compound 325, N-(2-oxo-1-{[(phenylmethyl)oxy]methyl}-2-{[4-(phenyloxy)phenyl]amino}ethyl)-4-(2-thienyl)butanamide]: the IC50 was 0.3 to 1 µM.

As to `Cc1cc(CC(=O)NC(COCc2ccccc2)C(=O)Nc2ccc(Oc3ccccc3)cc2)on1` (centres unmarked) [Compound 185, 2-(2-(3-methylisoxazol-5-yl)acetamido)-3-benzyloxy-N-(4-phenoxyphenyl)propanamide], the IC50 was not above 0.3 µM. `O=C(Cc1cnc[nH]1)N[C@@H](COCc1ccccc1)C(=O)Nc1ccc(Oc2ccc(Cl)cc2)cc1` [Compound 145, (S)-2-(2-(1H-imidazol-5-yl)acetamido)-3-benzyloxy-N-(4-(4-chlorophenoxy)phenyl)propanamide]: the IC50 is not above 0.3 µM. Take `O=C(CCc1cccs1)NC(COCc1ccccc1)C(=O)Nc1ccc(Oc2ccccc2)cc1` (centres unmarked) [Compound 403, N-(2-oxo-1-{[(phenylmethyl)oxy]methyl}-2-{[4-(phenyloxy)phenyl]amino}ethyl)-3-(thiophen-2-yl)propanamide]: the IC50 lay in the range of 0.3 to 1 µM.

In general, IC50 refers to the concentration that gives 50% inhibition.
